Measured values reported in ChEMBL document CHEMBL1201862, “PubChem BioAssay data set” (2004).
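Test compounds were applied to cells in 96-well plates for 48 hours at 5 doses. GI50 marks 50% less growth.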 Activity calls are given as the source filed them. No stated cut-off is given here; in the data, active = GI50 up to about 1.1 µM and inactive = higher.

Legend:
Assay in all cases: NCI anticancer screen, dose series, 48 h
786-0 = tested on: 786-0
A498 = tested on: A498
A549 = tested on: A549
ACHN = tested on: ACHN
CAKI-1 = tested on: CAKI-1
CCRF-CEM = tested on: CCRF-CEM
COLO 205 = tested on: COLO 205
DLD-1 = tested on: DLD-1
DMS-273 = tested on: DMS-273
EKVX = tested on: EKVX
HCC 2998 = tested on: HCC 2998
HCT-116 = tested on: HCT-116
HCT-15 = tested on: HCT-15
HL-60 = tested on: HL-60
HOP-18 = tested on: HOP-18
HOP-62 = tested on: HOP-62
HOP-92 = tested on: HOP-92
HT-29 = tested on: HT-29
IGROV-1 = tested on: IGROV-1
K562 = tested on: K562
KM-20L2 = tested on: KM-20L2
KM12 = tested on: KM12
LXFL 529 = tested on: LXFL 529
M14 = tested on: M14
M19-MEL = tested on: M19-MEL
MOLT-4 = tested on: MOLT-4
Malme-3M = tested on: Malme-3M
NCI-H226 = tested on: NCI-H226
NCI-H23 = tested on: NCI-H23
NCI-H460 = tested on: NCI-H460
NCI-H522 = tested on: NCI-H522
OVCAR-3 = tested on: OVCAR-3
OVCAR-4 = tested on: OVCAR-4
OVCAR-5 = tested on: OVCAR-5
OVCAR-8 = tested on: OVCAR-8
RPMI-8226 = tested on: RPMI-8226
RXF 631 = tested on: RXF 631
SF-268 = tested on: SF-268
SF-295 = tested on: SF-295
SF-539 = tested on: SF-539
SK-MEL-28 = tested on: SK-MEL-28
SK-MEL-2 = tested on: SK-MEL-2
SK-MEL-5 = tested on: SK-MEL-5
SK-OV-3 = tested on: SK-OV-3
SN12C = tested on: SN12C
SNB-19 = tested on: SNB-19
SNB-75 = tested on: SNB-75
SNB-78 = tested on: SNB-78
SR = tested on: SR
SW-620 = tested on: SW-620
TK-10 = tested on: TK-10
U-251 = tested on: U-251
UACC-257 = tested on: UACC-257
UACC-62 = tested on: UACC-62
UO-31 = tested on: UO-31
XF498 = tested on: XF498

Compound: O=C(CCC(=O)C1CCC/C1=N/O)Nc1ccc(Cl)cc1 (stereo unspecified)
- GI50 (786-0): > 100 µM (inactive)
- GI50 (A498): > 100 µM (inactive)
- GI50 (A549): > 100 µM (inactive)
- GI50 (ACHN): > 100 µM (inactive)
- GI50 (CAKI-1): > 100 µM (inactive)
- GI50 (CCRF-CEM): > 100 µM (inactive)
- GI50 (COLO 205): > 100 µM (inactive)
- GI50 (DLD-1): > 100 µM (inactive)
- GI50 (DMS-273): > 100 µM (inactive)
- GI50 (EKVX): > 100 µM (inactive)
- GI50 (HCC 2998): > 100 µM (inactive)
- GI50 (HCT-116): > 100 µM (inactive)
- GI50 (HCT-15): > 100 µM
- GI50 (HL-60): > 100 µM (inactive)
- GI50 (HOP-18): > 100 µM (inactive)
- GI50 (HOP-62): > 100 µM (inactive)
- GI50 (HOP-92): > 100 µM (inactive)
- GI50 (HT-29): > 100 µM (inactive)
- GI50 (IGROV-1): > 100 µM (inactive)
- GI50 (K562): > 100 µM (inactive)
- GI50 (KM-20L2): > 100 µM (inactive)
- GI50 (KM12): > 100 µM (inactive)
- GI50 (LXFL 529): > 100 µM (inactive)
- GI50 (M14): > 100 µM (inactive)
- GI50 (M19-MEL): > 100 µM (inactive)
- GI50 (MOLT-4): > 100 µM (inactive)
- GI50 (Malme-3M): > 100 µM (inactive)
- GI50 (NCI-H226): > 100 µM (inactive)
- GI50 (NCI-H23): > 100 µM (inactive)
- GI50 (NCI-H460): > 100 µM (inactive)
- GI50 (NCI-H522): > 100 µM (inactive)
- GI50 (OVCAR-3): > 100 µM (inactive)
- GI50 (OVCAR-4): > 100 µM (inactive)
- GI50 (OVCAR-5): > 100 µM (inactive)
- GI50 (OVCAR-8): > 100 µM (inactive)
- GI50 (RPMI-8226): > 100 µM (inactive)
- GI50 (RXF 631): > 100 µM (inactive)
- GI50 (SF-268): > 100 µM (inactive)
- GI50 (SF-295): > 100 µM (inactive)
- GI50 (SF-539): > 100 µM (inactive)
- GI50 (SK-MEL-28): > 100 µM (inactive)
- GI50 (SK-MEL-2): > 100 µM (inactive)
- GI50 (SK-MEL-5): > 100 µM (inactive)
- GI50 (SK-OV-3): > 100 µM (inactive)
- GI50 (SN12C): > 100 µM (inactive)
- GI50 (SNB-19): > 100 µM (inactive)
- GI50 (SNB-75): 74.5 µM (inactive)
- GI50 (SNB-78): > 100 µM (inactive)
- GI50 (SR): > 100 µM (inactive)
- GI50 (SW-620): > 100 µM (inactive)
- GI50 (TK-10): > 100 µM (inactive)
- GI50 (U-251): > 100 µM (inactive)
- GI50 (UACC-257): > 100 µM (inactive)
- GI50 (UACC-62): > 100 µM (inactive)
- GI50 (UO-31): > 100 µM (inactive)
- GI50 (XF498): > 100 µM (inactive)
